Here are results for ten compounds from ChEMBL document CHEMBL4421732, “Use of small molecule inhibitors targeting EYA tyrosine phosphatase” (2017).

Assay [1] deals with Aorta. As to the kind of experiment: Inhibition of micro-vessel branching in […] mouse aorta cultured in collagen gels assessed as reduction in aortic ring sprouting at 7.5 uM by aortic ring sprouting assay. Type of assay: functional, tissue-based.
Assay [2] has as its system Aorta. The assay can be described thus: Inhibition of micro-vessel branching in […] mouse aorta cultured in collagen gels assessed as reduction in initial sprouting at 7.5 uM by aortic ring sprouting assay. Type of assay: functional, tissue-based.
Assay [3] relates to Aorta. The assay can be described thus: Inhibition of micro-vessel branching in […] mouse aorta cultured in collagen gels assessed as attenuation of branching at 7.5 uM by aortic ring sprouting assay. Type of assay: functional, tissue-based.
The test system of a further assay is HUVEC. As to the kind of experiment: Inhibition of cell proliferation of HUVEC incubated for 3 days by WST8 dye based assay relative to control. The format is functional, Homo sapiens. Particulars: for inhibition: Homo sapiens. A general note: Tetrazolium dyes change colour on reduction, which living cells bring about.
The target in assay [4] is T1, Protein phosphatase EYA2 (Homo sapiens) (UniProt O00167).
T1 sequence (whole entry): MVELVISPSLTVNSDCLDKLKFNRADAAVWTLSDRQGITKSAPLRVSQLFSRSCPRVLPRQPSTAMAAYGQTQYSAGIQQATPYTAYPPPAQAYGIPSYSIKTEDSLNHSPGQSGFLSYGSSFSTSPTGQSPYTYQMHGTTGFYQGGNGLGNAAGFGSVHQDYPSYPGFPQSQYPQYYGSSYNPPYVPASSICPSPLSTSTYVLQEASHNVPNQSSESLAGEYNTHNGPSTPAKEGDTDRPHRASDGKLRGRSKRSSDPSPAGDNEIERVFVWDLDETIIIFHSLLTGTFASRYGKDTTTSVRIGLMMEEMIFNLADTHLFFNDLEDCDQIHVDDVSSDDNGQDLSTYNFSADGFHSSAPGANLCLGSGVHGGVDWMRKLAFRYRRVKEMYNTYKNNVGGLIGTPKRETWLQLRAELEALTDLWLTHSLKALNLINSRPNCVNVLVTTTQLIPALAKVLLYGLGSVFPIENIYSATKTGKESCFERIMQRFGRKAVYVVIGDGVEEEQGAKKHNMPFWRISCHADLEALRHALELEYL
The assay can be described thus: Inhibition of EYA2 (unknown origin) stably transfected in human MCF10A cells assessed as inhibition of cell migration at 7.5 uM by transwell assay. Type of assay: cell-based.

The species entered for assay [5] is Danio rerio. The assay can be described thus: Induction of vasculature defects in 5.25 hpf stage FLK1-GFP transgenic Zebrafish embryos assessed as reduction in intersegmental vessel number and extension measured at 24 hpf stage by fluorescence microscopy. Type of assay: functional, organism-based.
For assay [6], the species on record is Danio rerio. The assay can be described thus: Induction of vasculature defects in 5.25 hpf stage FLK1-GFP transgenic Zebrafish embryos assessed as reduction of intersegmental vessels at 0.25 uM measured at 24 hpf stage by fluorescence microscopy. The format is functional, organism-based.
The species entered for assay [7] is Danio rerio. As to the kind of experiment: Induction of vasculature defects in 20 hpf stage FLK1-GFP transgenic Zebrafish embryos measured at 24 hpf stage by fluorescence microscopy. Type of assay: functional, organism-based.
Assay [8] is filed under the species Danio rerio. As to the kind of experiment: Induction of general morphology changes in 20 hpf stage FLK1-GFP transgenic Zebrafish embryos measured at 24 hpf stage by fluorescence microscopy. Type of assay: functional, organism-based.
Assay [9] has as its target T2, Protein phosphatase EYA3 (Homo sapiens) (UniProt Q99504).
T2 sequence (whole entry): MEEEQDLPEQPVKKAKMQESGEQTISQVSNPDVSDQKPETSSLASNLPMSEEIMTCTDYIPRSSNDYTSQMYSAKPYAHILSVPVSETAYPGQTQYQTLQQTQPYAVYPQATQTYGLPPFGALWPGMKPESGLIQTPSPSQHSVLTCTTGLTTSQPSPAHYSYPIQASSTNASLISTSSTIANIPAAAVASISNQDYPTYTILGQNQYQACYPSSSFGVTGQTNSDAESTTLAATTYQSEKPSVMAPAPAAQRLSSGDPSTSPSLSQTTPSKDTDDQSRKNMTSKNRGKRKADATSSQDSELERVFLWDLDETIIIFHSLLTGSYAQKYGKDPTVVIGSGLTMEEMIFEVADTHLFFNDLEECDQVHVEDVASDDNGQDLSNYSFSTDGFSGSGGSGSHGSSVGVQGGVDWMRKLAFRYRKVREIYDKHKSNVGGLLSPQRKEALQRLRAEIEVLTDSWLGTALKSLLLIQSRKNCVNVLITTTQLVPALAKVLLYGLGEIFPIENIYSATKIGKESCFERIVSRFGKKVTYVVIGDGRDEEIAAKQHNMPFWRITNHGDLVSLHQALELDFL
The note with it: 3 to 10 uM.
Description: Competitive inhibition of poly-histidine and GST-tagged full length human Eya3 isoform 2 (127 to 573 residues) at 3 to 10 uM using para-nitrophenol phosphate substrate incubated for 30 mins

Assay [10] concerns the target T2, Protein phosphatase EYA3 (Homo sapiens). The note with it: 5 to 10 uM.
Description: Inhibition of poly-histidine and GST-tagged full length human Eya3 isoform 2 (127 to 573 residues) assessed as reduction in Vmax at 5 to 10 uM using para-nitrophenol phosphate substrate incubated for 30 mins
The target is the same in assay [11]. The note with it: 5 to 10 uM. The source holds these as a separate data set.
Description: Inhibition of poly-histidine and GST-tagged full length human Eya3 isoform 2 (127 to 573 residues) assessed as reduction in Km at 5 to 10 uM using para-nitrophenol phosphate substrate incubated for 30 mins

Active and inactive are the calls of the source. No cut-off for these calls is given here.

In the case of `CCc1oc2ccc(O)cc2c1C(=O)c1cc(Br)c(O)c(Br)c1`, the inhibition result in the assay on Aorta [1], in the assay with Aorta [2] and with Aorta [3] was “Dose-dependent effect” each time.

Consider `CC(O)CCc1oc2ccccc2c1C(=O)c1cc(I)c(O)c(I)c1` (configuration not stated), for which the inhibition entry with Aorta [1], in the assay with Aorta [2] and in the assay on Aorta [3] was “inactive” each time.

`CC(O)c1oc2ccccc2c1C(=O)c1cc(Br)c(O)c(Br)c1` (configuration not stated): the inhibition result with Aorta [1], with Aorta [2] and in the assay with Aorta [3] was “Dose-dependent effect” in each case.

For `CCc1oc2cc(O)ccc2c1C(=O)c1cc(Br)c(O)c(Br)c1`, in the assay on HUVEC, the “inhibition (INH)” value is over 50%. Also, the inhibition result in the assay with Aorta [1], in the assay on Aorta [2] and in the assay on Aorta [3] was “Dose-dependent effect” each time.

Regarding `CCc1oc2ccccc2c1C(=O)c1ccc(O)cc1`, the inhibition result in [4] is “Active”. In the assay on HUVEC, the inhibition result was “inactive”. Also, in the assay filed under Danio rerio [5], the Activity entry is “Dose-dependent effect”. In addition, the outcome in the assay filed under Danio rerio [6], in the assay listed under Danio rerio [7] and in the assay filed under Danio rerio [8] was inactive.

Regarding `Cc1oc2ccccc2c1C(=O)c1cc(I)c(O)c(I)c1`, the inhibition entry in the assay on Aorta [1], in the assay on Aorta [2] and in the assay with Aorta [3] was “Dose-dependent effect” throughout.

With `CCCCc1oc2ccccc2c1C(=O)c1ccc(O)cc1`, the inhibition result in assay [4] was “Active”. In addition, the Activity result in the assay filed under Danio rerio [5] was “Dose-dependent effect”. The outcome in the assay filed under Danio rerio [6], in the assay listed under Danio rerio [7] and in the assay listed under Danio rerio [8] was inactive.

As to `Cc1oc2ccccc2c1C(=O)c1ccc(O)c(I)c1`, the inhibition result with Aorta [1], with Aorta [2] and with Aorta [3] was “Dose-dependent effect” each time.

Turning to `CCc1oc2ccccc2c1C(=O)c1cc(Br)c(O)c(Br)c1`, the inhibition entry in assay [4], in [10] and in [11] was “Active” throughout. Besides, the inhibition entry (in the assay with HUVEC; in assay [9]) was “inactive” each time. In the assay listed under Danio rerio [5], the Activity result is “Dose-dependent effect”. Also, in the assay listed under Danio rerio [6], the result was Active. Besides, the result in the assay listed under Danio rerio [7] and in the assay filed under Danio rerio [8] was inactive.

As to `CCCCc1oc2ccccc2c1C(=O)c1cc(I)c(O)c(I)c1`, the inhibition entry in the assay with Aorta [1], with Aorta [2] and in the assay on Aorta [3] was “Dose-dependent effect” each time.
